Data published in ChEMBL document CHEMBL4118096, “Branched Peptides: Acridine and Boronic Acid Derivatives as Antimicrobial Agents” (ACS Med Chem Lett, 2017).
Values after ≈ are worked out from the molar mass of the structure shown. Where a SMILES comes first, the peptide text is derived from it. The star is where a group is joined. Benzoyl(4-B(OH)2) = O=C(c1ccc(B(O)O)cc1)*; Acridin9yl = c1ccc2c(*)c3ccccc3nc2c1; Bz = O=C(c1ccccc1)*

How the values were obtained:
Staphylococcus aureus = assay: Antimicrobial activity against Staphylococcus aureus ATCC 6538 measured on day 4 by broth microdilution method; format: functional; details: ATCC 6538, 96 h
Aspergillus niger = assay: Antifungal activity against Aspergillus niger measured on day 4 by broth microdilution method; format: functional; details: 96 h
Candida albicans [1] = assay: Antifungal activity against Candida albicans measured on day 4 by broth microdilution method; format: functional; details: 96 h
Escherichia coli = assay: Antimicrobial activity against Escherichia coli C ATCC 13706 measured on day 4 by broth microdilution method; format: functional; details: C ATCC 13706, 96 h
[2] = test system: Mycolicibacterium smegmatis; assay: Antimicrobial activity against Mycobacterium smegmatis ATCC 607 measured on day 4 by broth microdilution method; format: functional; details: ATCC 607, 96 h
Candida albicans [3] = assay: Antifungal activity against Candida albicans VT1406 in cell suspension after 24 hrs by XXT/PMS dye based assay; format: functional; details: VT1406, 24 h
Saccharomyces cerevisiae = assay: Induction of membrane lysis activity in Saccharomyces cerevisiae assessed as maltase release at MIC after 60 mins relative to control; format: functional
Candida albicans [4] = assay: Induction of membrane lysis in Candida albicans assessed as maltase release at MIC after 60 mins relative to control; format: functional
Erythrocyte = assay: Hemolytic activity in sheep RBC measured after 15 mins; format: ADME, cell-based, Ovis aries; details: 0.25 h
U-87 MG = assay: Cytotoxicity against human U87 cells assessed as decrease in cell viability at 10 uM after 24 hrs by MTT assay; format: cell-based; details: u-87mg atcc
[5] = Safety index, ratio of EC10 for hemolytic activity in sheep RBC to MIC for Candida albicans; format: toxicity; details: sheep red blood cells
Candida albicans [6] = assay: Antibiofilm activity against Candida albicans VT1406 after 24 hrs by XXT/PMS dye based assay; format: functional; details: VT1406, 24 h

Row | SMILES | MIC (Staphylococcus aureus) [µg/mL] | MIC (Aspergillus niger) [µg/mL] | MIC (Candida albicans [1]) [µg/mL] | MIC (Escherichia coli) [µg/mL] | MIC [2] [µg/mL] | MIC (Candida albicans [3]) [µg/mL] | MIC (Candida albicans [6]) [µg/mL] | Activity (Saccharomyces cerevisiae) [%] | Activity (Candida albicans [4]) [%] | EC10 (Erythrocyte) [µg/mL] | Activity (U-87 MG) | selectivity ratio [5]
1 | CC(C)C[C@H](NC(=O)[C@H](CCCCNC(=O)c1ccc(B(O)O)cc1)NC(=O)[C@H](CC(C)C)NC(=O)[C@H](CCCCN)NC(=O)[C@H](CCCCN)NC(=O)[C@H](CCCCN)NC(=O)[C@H](CCCCN)NC(=O)[C@H](CCCCN)NC(=O)[C@@H](N)CCCCN)C(=O)N[C@@H](Cc1ccc(O)cc1)C(=O)O (H-KKKKKKLK(Benzoyl(4-B(OH)2))LY-OH) | 32 (≈ 22 µM) | 62.5 (≈ 43 µM) | 4 (≈ 2.75 µM) | 16 (≈ 11 µM) | 32 (≈ 22 µM) |  |  |  |  |  |  | 
2 | CC(C)C[C@H](NC(=O)[C@H](CC(C)C)NC(=O)[C@H](CCCCN)NC(=O)[C@H](CC(C)C)NC(=O)[C@@H](N)CC(C)C)C(=O)N[C@@H](CCCCN)C(=O)N[C@@H](CCCCN)C(=O)N[C@@H](CCCCNC(=O)c1ccc(B(O)O)cc1)C(=O)N[C@@H](CCCCN)C(=O)N[C@@H](Cc1ccc(O)cc1)C(=O)O (H-LLKLLKKK(Benzoyl(4-B(OH)2))KY-OH) | 62.5 (≈ 43.9 µM) | 250 (≈ 176 µM) | 8 (≈ 5.62 µM) | 16 (≈ 11.2 µM) | 125 (≈ 87.9 µM) |  |  |  |  |  |  | 
3 | CC(C)C[C@H](NC(=O)[C@H](CC(C)C)NC(=O)[C@H](CCCCN)NC(=O)[C@H](CCCCN)NC(=O)[C@H](CC(C)C)NC(=O)[C@H](CCCCN)NC(=O)[C@@H](N)CCCCN)C(=O)N[C@@H](CCCCN)C(=O)N[C@@H](CCCCNC(=O)c1ccc(B(O)O)cc1)C(=O)N[C@@H](Cc1ccc(O)cc1)C(=O)O (H-KKLKKLLKK(Benzoyl(4-B(OH)2))Y-OH) | 62.5 (≈ 43.5 µM) | 125 (≈ 86.9 µM) | 4 (≈ 2.78 µM) | 16 (≈ 11.1 µM) | 32 (≈ 22.3 µM) |  |  |  |  |  |  | 
4 | CC(C)C[C@H](NC(=O)[C@H](CCCCNC(=O)c1ccccc1)NC(=O)[C@H](CCCCN)NC(=O)[C@H](CCCCN)NC(=O)[C@H](CCCCN)NC(=O)[C@H](CCCCN)NC(=O)[C@H](CCCCN)NC(=O)[C@@H](N)CCCCN)C(=O)N[C@@H](CCCCN)C(=O)N[C@@H](Cc1ccc(O)cc1)C(=O)O (H-KKKKKKK(Bz)LKY-OH) | 62.5 (≈ 43.9 µM) | 125 (≈ 87.8 µM) | 2 (≈ 1.4 µM) | 32 (≈ 22.5 µM) | 32 (≈ 22.5 µM) |  |  | 1 | <1 |  |  | 

Further lines, with some results ahead:

Row | MIC (Staphylococcus aureus) [µg/mL] | MIC (Aspergillus niger) [µg/mL] | MIC (Candida albicans [1]) [µg/mL] | MIC (Escherichia coli) [µg/mL] | MIC [2] [µg/mL] | MIC (Candida albicans [3]) [µg/mL] | MIC (Candida albicans [6]) [µg/mL] | SMILES | Activity (Saccharomyces cerevisiae) [%] | Activity (Candida albicans [4]) [%] | EC10 (Erythrocyte) [µg/mL] | Activity (U-87 MG) | selectivity ratio [5]
5 | 62.5 (≈ 35.4 µM) | 125 (≈ 70.9 µM) | 8 (≈ 4.54 µM) | 16 (≈ 9.07 µM) | 62.5 (≈ 35.4 µM) |  |  | CC(C)C[C@H](NC(=O)[C@H](CCCCN)NC(=O)[C@H](CCCCNC(=O)c1ccc(B(O)O)cc1)NC(=O)[C@H](CCCCN)NC(=O)[C@H](CCCCN)NC(=O)[C@H](CCCCNC(=O)c1ccc(B(O)O)cc1)NC(=O)[C@H](CCCCN)NC(=O)[C@@H](N)CCCCN)C(=O)N[C@@H](CCCCNC(=O)c1ccc(B(O)O)cc1)C(=O)N[C@@H](Cc1ccc(O)cc1)C(=O)O (H-KKK(Benzoyl(4-B(OH)2))KKK(Benzoyl(4-B(OH)2))KLK(Benzoyl(4-B(OH)2))Y-OH) |  |  |  |  | 
6 | 16 (≈ 10.7 µM) | 62.5 (≈ 41.8 µM) | 2 (≈ 1.34 µM) | 8 (≈ 5.34 µM) | 32 (≈ 21.4 µM) | 1 (≈ 0.668 µM) | 1 (≈ 0.668 µM) | CC(C)C[C@H](NC(=O)[C@H](CCCCN)NC(=O)[C@H](CCCCN)NC(=O)[C@H](CCCCN)NC(=O)[C@H](CCCCN)NC(=O)[C@H](CCCCN)NC(=O)[C@H](CCCCN)NC(=O)[C@@H](N)CCCCN)C(=O)N[C@@H](CCCCNc1c2ccccc2nc2ccccc12)C(=O)N[C@@H](Cc1ccc(O)cc1)C(=O)O (H-KKKKKKKLK(Acridin9yl)Y-OH) | 0.7 | 6 | > 250 | Non-Toxic | > 100
7 | 62.5 (≈ 37.3 µM) | 125 (≈ 74.6 µM) | 8 (≈ 4.77 µM) | 8 (≈ 4.77 µM) | 62.5 (≈ 37.3 µM) |  |  | CC(C)C[C@H](NC(=O)[C@H](CCCCN)NC(=O)[C@H](CCCCN)NC(=O)[C@H](CCCCN)NC(=O)[C@H](CCCCNC(=O)c1ccccc1)NC(=O)[C@H](CCCCN)NC(=O)[C@H](CCCCN)NC(=O)[C@@H](N)CCCCNC(=O)c1ccccc1)C(=O)N[C@@H](CCCCNC(=O)c1ccc(B(O)O)cc1)C(=O)N[C@@H](Cc1ccc(O)cc1)C(=O)O (H-K(Bz)KKK(Bz)KKKLK(Benzoyl(4-B(OH)2))Y-OH) |  |  |  |  | 
8 | 8 (≈ 4.39 µM) | 32 (≈ 17.6 µM) | 2 (≈ 1.1 µM) | 2 (≈ 1.1 µM) | 32 (≈ 17.6 µM) | 2 (≈ 1.1 µM) | 1 (≈ 0.549 µM) | CC(C)C[C@H](NC(=O)[C@H](CCCCN)NC(=O)[C@H](CCCCN)NC(=O)[C@H](CCCCNc1c2ccccc2nc2ccccc12)NC(=O)[C@H](CCCCN)NC(=O)[C@H](CCCCN)NC(=O)[C@H](CCCCNc1c2ccccc2nc2ccccc12)NC(=O)[C@@H](N)CCCCN)C(=O)N[C@@H](CCCCNC(=O)c1ccc(B(O)O)cc1)C(=O)N[C@@H](Cc1ccc(O)cc1)C(=O)O (H-KK(Acridin9yl)KKK(Acridin9yl)KKLK(Benzoyl(4-B(OH)2))Y-OH) | 1.4 | 1 | > 250 | Non-Toxic | > 100
9 | 62.5 (≈ 39 µM) | 125 (≈ 78.1 µM) | 8 (≈ 5 µM) | 16 (≈ 10 µM) | 62.5 (≈ 39 µM) |  |  | CC(C)C[C@H](NC(=O)[C@H](CCCCN)NC(=O)[C@H](CCCCN)NC(=O)[C@H](CC(C)C)NC(=O)[C@H](CCCCN)NC(=O)[C@@H](N)CCCCN)C(=O)N[C@@H](CCCCN)C(=O)N[C@@H](CCCCNC(=O)c1ccc(B(O)O)cc1)C(=O)N[C@@H](CCCCNC(=O)c1ccc(B(O)O)cc1)C(=O)N[C@@H](Cc1ccc(O)cc1)C(=O)O (H-KKLKKLKK(Benzoyl(4-B(OH)2))K(Benzoyl(4-B(OH)2))Y-OH) |  |  |  |  | 
